# Assay results as given in patent US12053441B2, “Formulations for improving the delivery of hydrophobic agents” (THE ROYAL INSTITUTION FOR THE ADVANCEMENT OF LEARNING / …, priority 2018, dated 2024).
# Columns and labels:
# [1] = Solubilization of curcumin in water; type: physicochemical
# Excerpt: It is important to note that in contrast with the other surfactants tested, McC1 is non-toxic and can be used in intravenous injection.
# Pdss2/Mclk1 DKO cells [2] = assay: Oxygen consumption rate (OCR) by Seahorse XF analyzer; type: cell-based, mouse
# Protocol: Measurement of oxygen consumption by Seaborse XF analyzer. Cells were seeded in XF v7 24-well plates (Seahorse Bioscience) at ˜40,000 cells/well for 24 hr. Prior to the measurements, cell medium was replaced with Seahorse XF base medium supplemented with 5.5 mM glucose (Sigma Cat No G8769), 2 mM Glutamax (Thermo Fisher Cat No 35050061) and 1 mM sodium pyruvate and allowed to equilibrate for 1 hour at 37° C. Oxygen consumption was measured first under baseline condition, followed by subsequent addition of 1 μg/ml oligomycin (Sigma Cat No 04876), 0.8 μM FCCP (Sigma Cat No C2920) and a combination of 1 μM rotenone (Sigma Cat No R8875) and 5 μM antimycin A (Sigma Cat No A8674) to assess the basal and maximal mitochondrial respiration rates. Four baseline measurements were recorded before the consecutive addition of the above-mentioned compounds, and three response measurements were taken after the addition of each compound. Results were finally normalized to protein content determined using the Bradford reagent (Bio-Rad). For experiments that involved culturing cells in the presence of lipoprotein-deficient serum (LPDS), cells were grown in culture medium supplemented with LPDS (Sigma S5394) for 1 week before OCR was measured using a Seahorse XF-24 extracellular flux analyzer as described above.
# [3] = Protocol: Solubilization studies. In order to link the surfactant properties of McC1 and its stimulating impact on UQ10 uptake, the solubilization characteristics of McC1 on UQ10 have been determined. First, solubilization test was performed by overnight shaking of a mixture of UQ10 and McC1 in water.
# Additional solubilization tests were performed using sonication. Excess amount of UQ10 was mixed with McC1 by sonication for 2 min in water.
# Like caspofungin/McC1, surfactin is a cyclic lipopeptide. It is produced from various strains of Bacillus subtilis. Structurally it consists of a peptide chain formed by seven amino acids linked to a β-hydroxyl fatty acid via a lactone bond. It is known for its exceptional surfactant power. […] Then, solubilization test was performed by overnight shaking of a mixture of UQ10 and surfactin in water. The mixture were subjected to brief centrifugation to separate undissolved UQ10 before absorbance of the resultant clear supernatant at 275 nm was measured spectrophotometrically.
# Several other surfactants were tested for their ability to solubilize UQ. Briefly, excess amount of UQ10 was mixed with water solution of the tested surfactants using sonication. The resultant suspensions were then filtered through a 0.45 μm syringe filter to remove undissolved UQ10.
# Pdss2/Mclk1 DKO cells [4] = assay: Viability in glucose-free galactose-containing medium (resazurin reduction assay); type: cell-based, mouse
# Protocol: Tissue culture and viability assays. […] Cell viability was determined by resazurin (Sigma Cat No R7017) reduction assay or crystal violet staining following standard procedures.
# (§1) The resazurin cell viability assay. Briefly, resazurin was added directly to plates at 1/10 the volume of glucose culture medium. Viable cells with active metabolism can reduce resazurin into resorufin which causes a colour change from blue to pink. After a 2 hr incubation, plates were read on a plate reader (Tecan) to record absorbance at 570 nm and 600 nm. The cell viability was scored as a percentage relative to the signal from untreated glucose-grown wells. Consequently, each screened compound may be described by its effect (no, partial or full rescue) on survival of the KO cells in galactose medium.
# The screen also uses cells lacking UQ biosynthesis (e.g., DKO cells) and its protocol is essentially the same as the galactose-only screen except that in step 2, a minimal amount of UQ10 is added into the galactose screening media at a concentration at which the added UQ10 is insufficient by itself to support survival.
# human Hela cells = assay: Cellular UQ10 levels (quinone quantification by HPLC); type: cell-based; conditions: 1 hour treatment, human cells (FIG. 15)
# Excerpt: (A) UQ levels in wild-type MEFs after treatment with McC1-solubilized form of UQ10. (B) UQ levels in human Hela cells after treatment with McC1-solubilized form of UQ10. Results are shown as the levels of UQ9 (white bars, measured as ng/mg of protein) or UQ10 (black bars, measured as ng/mg of protein) in control conditions (+None), after treatment with a formulation containing McC1-solubilized form of UQ10, or in the presence of UQ10 only (+UQ10). For the 2 treatment conditions in A, the final UQ10 concentrations in the media were the same—2.5 μM. In B, the final UQ10 concentrations in the media were 8 μM for the two treatment conditions. Values are mean±SEM (n=2). ****p<0.0001 (one-way ANOVA).
# (§2) Quantification of quinones. Quinone content was detected and quantified by HPLC as previously described. […] After centrifugation for 5 min at 8,000×g, the hexane layer was collected and evaporated in a vacuum centrifuge. The quinone residue was then dissolved in ethanol and stored at −20° C. until HPLC analysis. The HPLC analysis was performed on a reverse phase C18 column (25.0×0.46 cm, 5 μm, Highchrom) using UV detection at 275 nm (Beckman System Gold). The mobile phase was methanol/ethanol (70:30 v/v) and isocratic elution was used at a flow rate of 1.8 ml/min.
# Mclk1 KO cells = assay: Viability in glucose-free galactose-containing medium (resazurin reduction assay); type: cell-based, mouse
# Protocol: Tissue culture and viability assays. […] To score growth and viability in galactose, cells were first grown in high glucose DMEM medium to confluency and then switched to glucose-free DMEM media (Thermo Fisher Cat No 26400036) supplemented with 10 mM galactose (Sigma Cat No G5388), 1 mM sodium pyruvate (Thermo Fisher Cat No 11360070), 10% dialyzed FBS (Thermo Fisher Cat No 26400036) and 1% antibiotic-antimycotic solution. Cell viability was determined by resazurin (Sigma Cat No R7017) reduction assay or crystal violet staining following standard procedures.
# The screen uses cells lacking UQ (e.g., Mclk1 KO cells) and consists of three key steps: • 1) Day 0: preparation of Mclk1 KO cells in 96-well plates in standard (glucose-containing) culture medium. • 2) Day 1: changing to glucose-free galactose-containing medium and adding compounds to be screened at a concentration of approximately 10 μM. • 3) Day 4 to 6: following 3 to 5 days of incubation with the compound to be screened, media were removed and cell viability was assayed by resazurin reduction assay.
# as §1
# wildtype MEFs = assay: Cellular UQ10 levels (quinone quantification by HPLC); type: cell-based, mouse
# Protocol: as §2
# [5] = Solubilization of paclitaxel (PTX) in water; conditions: FIG. 25
# Protocol: (A) Bar graph showing a concentration of soluble PTX in 4 mM McC1 solution. After mixing PTX and McC1 solution, the undissolved residues were removed by filtration through a 0.22 μm pore-size membrane. For determination of the PTX concentration, absorbance at 230 nm was measured and compared to a standard curve generated for known concentrations of PTX in pure methanol.
# [6] = system: mitochondria of Pdss2/Mclk1 DKO MEFs; assay: UQ levels in mitochondrial extracts; type: cell-based, mouse; conditions: in combination with UQ10, vs UQ10 alone
# Excerpt: (§3) FIGS. 7A to 7D present exemplary data showing that McC1 is capable of increasing the uptake of exogenous UQ into cells and mitochondria. (A) Bar chart showing change of UQ10 levels (as measured in ng/μg of protein) in Pdss2/Mclk1 DKO MEFs after treatment with UQ10, McC1 alone, or UQ10 and McC1 in combination. **p<0.01, ***p<0.001 (one-way ANOVA). (B) Bar charts presenting exemplary data showing changes of UQ levels in wildtype MEFs after treatment with UQ10, McC1 alone, or both in combination. Results are shown as cellular UQ10 levels (as provided in ng/μg of protein, left panel) or UQ9 levels (as provided in ng/μg of protein, right panel) in untreated cells, after treatment with 12.5 μM of McC1, after treatment with 2.5 μM of UQ10, or after co-treatment UQ10 and McC1. Results are mean±SEM (n=3). ****p<0.0001 (one-way ANOVA). (C) Bar chart presenting exemplary data showing changes of UQ10 and UQ9 levels in mitochondrial extracts from wildtype MEFs after treatment with UQ10 alone, or in combination with McC1. Results are shown as UQ9 and UQ10 levels in ng/μg of protein. Results are mean±SEM (n=3). ****p<0.0001 (student's t-test). (D) Bar chart presenting exemplary data showing changes of UQ10 level in mitochondrial extracts from Pdss2/Mclk1 DKO MEFs after treatment with UQ10 alone, or in combination with McC1. Results are shown as UQ10 levels (as provided in ng/μg of protein) in untreated DKO cells, after treatment with 2.5 μM of UQ10, or after co-treatment 2.5 μM of UQ10 and 12.5 μM of McC1. ND: Not Detectable. Results are mean±SEM (n=3). ****p<0.0001 (one-way ANOVA).
# as §2
# [7] = system: mitochondria of wild-type MEFs; assay: UQ levels in mitochondrial extracts; type: cell-based, mouse; conditions: in combination with UQ10, vs UQ10 alone
# Excerpt: as §3, §2
# [8] = system: mouse embryonic fibroblasts (MEFs); assay: Effect of PTX/McC1 micelles on cell growth and survival (resazurin reduction assay); type: cell-based; conditions: 2 to 6 days exposure (FIG. 26B)
# Protocol: To evaluate the antiproliferative activity of PTX/McC1 micelles, we seeded exponentially growing mouse embryonic fibroblasts (MEFs) into 48-well plates, exposed them to PTX/McC1 micelles for 2 to 6 days, and determined the treatment effect on cell growth and survival by comparing the numbers of variable cells before and after the treatment.
# Cells were allowed to attach overnight and then the PTX/McC1 solution was added into the culture media to obtain the desired concentrations. After 2 days' treatment, the standard resazurin reduction assay was used to evaluate cell growth and survival.
# [9] = Drop collapse assay (surfactant activity); type: physicochemical
# Protocol: Drop collapse assay is a simple detection method of surface active agents. It relies on the capacity of surfactants to destabilize the liquid droplets on an oily surface. The drop-collapsing ability of McC1 along with other known potent surfactants was characterized. For each, 40 ul of compound solution in water was pipetted onto a hydrophobic Parafilm surface and the diameter of the drops was measured 1 min later using a ruler.
# Pdss2/Mclk1 DKO MEFs = assay: Cellular UQ10 levels (quinone quantification by HPLC); type: cell-based, mouse
# Protocol: as §2
# [10] = in combination with UQ10, vs UQ10 alone
smiles,measurement,setting,value
COc1cc(/C=C/C(=O)CC(=O)/C=C/c2ccc(O)c(OC)c2)ccc1O [curcumin],solubility of free curcumin in water,[1],very low solubility in water
"COC1=C(OC)C(=O)C(C/C=C(\C)CC/C=C(\C)CC/C=C(\C)CC/C=C(\C)CC/C=C(\C)CC/C=C(\C)CC/C=C(\C)CC/C=C(\C)CC/C=C(\C)CCC=C(C)C)=C(C)C1=O [UQ10, ubiquinone-10]",rates of mitochondrial respiration,"Pdss2/Mclk1 DKO cells [2]; UQ10 at sufficient doses, Mclk1 SKO and Pdss2/Mclk1 DKO cells",increases rates of mitochondrial respiration
same,soluble UQ10 in the water-only control,[3],no detectable soluble UQ10
same,rescue from galactose-induced cell death by UQ supplementation,Pdss2/Mclk1 DKO cells [4]; if provided at a sufficient amount,sufficient to rescue them from galactose-induced cell death
same,cellular UQ10 levels,human Hela cells,no effect on intracellular UQ10 levels
same,survival of Mclk1 KO cells in galactose medium,Mclk1 KO cells; UQ10 0.5 μM (FIG. 3C),little effect
same,survival of Mclk1 KO cells in galactose medium,Mclk1 KO cells; UQ10 10 μM (FIG. 3C),almost full rescue
same,cellular UQ10 levels,"wildtype MEFs; 1 hour treatment, mouse cells (FIG. 15)",no effect on intracellular UQ10 levels
"CC(=O)O[C@H]1C(=O)[C@@]2(C)[C@H]([C@H](OC(=O)c3ccccc3)[C@]3(O)C[C@H](OC(=O)[C@H](O)[C@@H](NC(=O)c4ccccc4)c4ccccc4)C(C)=C1C3(C)C)[C@]1(OC(C)=O)CO[C@@H]1C[C@@H]2O [PTX, Paclitaxel]",solubility of PTX in water-only control,[5],not soluble in water
"CC[C@H](C)C[C@H](C)CCCCCCCCC(=O)N[C@H]1C[C@@H](O)[C@@H](NCCN)NC(=O)[C@@H]2[C@@H](O)CCN2C(=O)[C@H]([C@H](O)CCN)NC(=O)[C@H]([C@H](O)[C@@H](O)c2ccc(O)cc2)NC(=O)[C@@H]2C[C@@H](O)CN2C(=O)[C@H]([C@@H](C)O)NC1=O [McC1, Caspofungin]",uptake of exogenous UQ10 into mitochondria,[6],significantly increased uptake of exogenous UQ10 into mitochondria
same,uptake of exogenous UQ10 into mitochondria,[7],significantly increased uptake of exogenous UQ10 into mitochondria
same,mitochondrial respiration (OCR) compared with UQ10 treatment alone,Pdss2/Mclk1 DKO cells [2]; co-treatment with UQ10,greater increase of mitochondrial respiration
same,increase in aqueous solubility of UQ10,[3],"more than 1,200,000 fold"
same,water solubility of UQ10 in the presence of the compound,[3],greatly increased
same,effect on cell growth and survival,[8],no observable toxicity
same,surfactant (drop collapse) activity,[9],moderate surfactant activity
same,survival of DKO cells in galactose medium,"Pdss2/Mclk1 DKO cells [4]; compound by itself, no UQ10 added",no effect
same,survival of DKO cells in galactose medium,Pdss2/Mclk1 DKO cells [4]; in the presence of a minimal amount of UQ10,able to rescue the mutant cells from death
same,intracellular concentration of UQ,wildtype MEFs; compound used alone,no effect
same,cellular uptake of exogenous UQ10,wildtype MEFs; [10],increased uptake of exogenous UQ10 into cells
same,intracellular concentration of UQ,Pdss2/Mclk1 DKO MEFs; compound used alone,no effect
same,cellular uptake of exogenous UQ10,Pdss2/Mclk1 DKO MEFs; [10],increased uptake of exogenous UQ10 into cells
